Measurements: patent publication US20050038077A1, “Tablet containing 3-[(2-{[4-(hexyloxycarbonylamino-imino-methyl)-phenylamino]-methyl}-1-methyl-1H- benzimidazol-5-carbonyl)-pyridin-2-yl-amino]-propionic acid ethylester or the salts thereof” (Boehringer Ingelheim International GmbH, priority 2003, published 2005)

Assay: first clinical trials, oral administration, plasma levels
Assay type: in vivo
[1] = conventional tablets containing the compound of formula (I), first clinical trials

variability of the plasma level patterns (administered as an oral solution, compared with conventional tablets): significantly lower
malabsorption [1]: individual cases of malabsorption
variability of plasma levels [1]: highly variable plasma levels
Compound: CCCCCCOC(=O)NC(=N)c1ccc(NCc2nc3cc(C(=O)N(CCC(=O)OCC)c4ccccn4)ccc3n2C)cc1 [compound of formula (I), ethyl 3-[(2-{[4-(hexyloxycarbonylaminoiminomethyl)phenylamino]methyl}-1-methyl-1H-benzimidazole-5-carbonyl)pyridin-2-ylamino]propionate]
malabsorption (administered as an oral solution): no instances of malabsorption have been observed
